Results as given in US11014895B2, “Heterocyclic urea compound, and drug composition and application thereof” (CHINA PHARMACEUTICAL UNIVERSITY, priority 2017, dated 2021).

Experiments:
[1] = biological target: T1, IDO1 enzyme in the Hela cell (Homo sapiens, UniProt P14902); assay: Cell activity: interferon γ-stimulated Hela cells, absorbance of supernatant at 480 nm; type: cell-based; settings: interferon γ 100 ng/ml, 72 hours
T1 construct: endogenous in cells; host or cells: HeLa cells stimulated with interferon γ (100 ng/ml)
Protocol: (2) Method for Determining Cell Activity
Hela cells were cultured and passaged in a DMEM medium supplemented with antibiotics in a 37° C. CO2 incubator, inoculated into a 96-well plate for overnight culture, then 1 μl of heterocyclic urea compound with appropriate concentration was added to each well, and then 100 μl of interferon γ (final concentration was 100 ng/ml) was added. After the cells were continuously cultured for 72 hours, 70 μl of cell culture supernatant was added to a 96-well V-bottom plate, 5 μl of trichloroacetic acid (6.1 N) was added to each well, incubated at 50° C. for 30 min, then taken out and centrifuged at […] for 10 min. The above centrifuged supernatant was transferred to a 384-well microplate (20 μl/well), then 20 μl of 2% didimethylaminobenzaldehyde acetic acid solution was added to each well, shaken and mixed evenly, then photometric absorption was performed at 480 nm, and values were measured.

IDO1 enzyme = IDO1 enzyme (Homo sapiens, UniProt P14902); assay: Determination of biochemical activity of IDO1 enzyme (absorbance at 320 nm); settings: room temperature, 3 hours
Protocol: (1) Method for Determining Biochemical Activity of IDO1 Enzyme
Firstly, 15 μl of buffer solution of sodium hydrogen phosphate (PH:7-8), 5 μl of reaction buffer solution containing a proper amount of IDO-1 enzyme and heterocyclic urea compound prepared by the invention were added into wells of a microplate, mixed evenly, and reacted at room temperature for 3 hours; then a light absorption value at 320 nm wavelength was detected by using Envision Multilabel Reader of PE company, an inhibition rate of the heterocyclic urea compound on the enzyme reaction was calculated according to an absorption ratio, and an IC50 value of the heterocyclic urea compound was calculated through analysis by GraphPad.

T1 sequence (P14902 whole entry): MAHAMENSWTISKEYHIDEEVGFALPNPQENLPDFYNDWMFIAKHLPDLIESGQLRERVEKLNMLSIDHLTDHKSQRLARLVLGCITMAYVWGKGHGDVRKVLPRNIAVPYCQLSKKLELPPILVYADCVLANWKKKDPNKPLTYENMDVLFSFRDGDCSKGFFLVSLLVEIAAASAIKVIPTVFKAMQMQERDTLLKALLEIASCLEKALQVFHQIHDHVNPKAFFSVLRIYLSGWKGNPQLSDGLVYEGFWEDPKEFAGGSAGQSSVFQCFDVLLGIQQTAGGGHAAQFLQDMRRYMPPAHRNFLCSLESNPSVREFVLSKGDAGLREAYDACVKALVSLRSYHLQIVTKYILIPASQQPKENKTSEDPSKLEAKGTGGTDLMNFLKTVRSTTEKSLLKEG
Chain of IDO1 enzyme (P14902 whole entry): as above

Compound	IC50 [1] [µM]	IC50 (IDO1 enzyme) [µM]
NCCNC(=O)Nc1nocc1/C(=N/O)Nc1ccc(F)c(Br)c1 [Embodiment 90, (Z)-1-(4-(N-(3-bromo-4-fluorophenyl)-N′-hydroxyaminoiminomethyl)-isoxazole-3-substituted)+3-(2-aminoethyl)urea]	< 0.001	< 0.001
NC1CCC(NC(=O)Nc2cocc2/C(=N/O)Nc2ccc(F)c(Br)c2)CC1 (stereo not drawn) [Embodiment 66, (Z)-1-(4-(N-(3-bromo-4-fluorophenyl)-N′-hydroxyaminoiminomethyl)-furan-3-substituted)-3-(4-aminocyclohexyl)urea]	0.1 to 1	0.1 to 1
Nc1ccc(NC(=S)Nc2nonc2/C(=N/O)Nc2ccc(F)c(Br)c2)cc1 [Embodiment 118, (Z)-1-(4-(N-(3-bromo-4-fluorophenyl)-N′-hydroxyaminoiminomethyl)-1,2,5-oxadiazole-3-substituted)-3-(4-aminophenyl)thiourea]	< 0.001	< 0.001
NCCCNC(=O)Nc1cocc1/C(=N/O)Nc1ccc(F)c(Br)c1 [Embodiment 67, (Z)-1-(4-(N-(3-bromo-4-fluorophenyl)-N′-hydroxyaminoiminomethyl)-furan-3-substituted)-3-(3-aminopropyl)urea]	0.1 to 1	0.1 to 1
O/N=C(\Nc1ccc(F)c(Br)c1)c1cocc1NC(=S)Nc1ccccc1 [Embodiment 137, (Z)-1-(4-(N-(3-bromo-4-fluorophenyl)-N′-hydroxyaminoiminomethyl)-furan-3-substituted)-3-phenylthiourea]	0.1 to 1	0.1 to 1
NC1CCC(NC(=S)Nc2nonc2/C(=N/O)Nc2ccc(F)c(Br)c2)CC1 (stereo not drawn) [Embodiment 126, (Z)-1-(4-(N-(3-bromo-4-fluorophenyl)-N′-hydroxyaminoiminomethyl)-1,2,5-oxadiazole-3-substituted)-3-(4-aminocyclohexyl)thiourea]	0.1 to 1	0.1 to 1
O=C(NCCCO)Nc1nonc1/C(=N/O)Nc1ccc(F)c(Br)c1 [Embodiment 13, (Z)-1-(4-(N-(3-bromo-4-fluorophenyl)-N′-hydroxyaminoiminomethyl)-1,2,5-oxadiazole-3-substituted)-3-(3-hydroxypropane)urea]	< 0.001	< 0.001
COc1ccc(NC(=N)Nc2nonc2/C(=N/O)Nc2ccc(F)c(Br)c2)c(F)c1 [Embodiment 144]	0.1 to 1	0.1 to 1
O/N=C(\Nc1ccc(F)c(Br)c1)c1nonc1NC(=S)NC1CCC(O)CC1 (stereo not drawn) [Embodiment 123, (Z)-1-(4-(N-(3-bromo-4-fluorophenyl)-N′-hydroxyaminoiminomethyl)-1,2,5-oxadiazole-3-substituted)-3-(4-hydroxycyclohexyl)thiourea]	< 0.001	< 0.001
NC1CCC(NC(=O)Nc2conc2/C(=N/O)Nc2ccc(F)c(Br)c2)CC1 (stereo not drawn) [Embodiment 108]	0.1 to 1	0.1 to 1
O=C(Nc1conc1/C(=N/O)Nc1ccc(F)c(Br)c1)NC1CCC(O)CC1 (stereo not drawn) [Embodiment 105]	< 0.001	< 0.001
O=C(Nc1cocc1/C(=N/O)Nc1ccc(F)c(Br)c1)NC1CCC(O)CC1 (stereo not drawn) [Embodiment 63, (Z)-1-(4-(N-(3-bromo-4-fluorophenyl)-N′-hydroxyaminoiminomethyl)-furan-3-substituted)-3-(4-hydroxycyclohexyl)urea]	< 0.001	< 0.001
COc1ccccc1NC(=O)Nc1nonc1/C(=N/O)Nc1ccc(F)c(Br)c1 [Embodiment 3, (Z)-1-(4-(N-(3-bromo-4-fluorophenyl)-N′-hydroxyaminoiminomethyl)-1,2,5-oxadiazole-3-substituted)-3-(2-methoxyphenyl)urea]	> 1	> 1
O=C(Nc1ccoc1)Nc1nonc1/C(=N/O)Nc1ccc(F)c(Br)c1 [Embodiment 41, (Z)-1-(4-(N-(3-bromo-4-fluorophenyl)-N′-hydroxyaminoiminomethyl)-1,2,5-oxadiazole-3-substituted)-3-(furan-3-substituted)urea]	0.1 to 1	0.1 to 1
NCCNC(=O)Nc1nonc1/C(=N/O)Nc1ccc(F)c(Br)c1 [Embodiment 16, (Z)-1-(4-(N-(3-bromo-4-fluorophenyl)-N′-hydroxyaminoiminomethyl)-1,2,5-oxadiazole-3-substituted)-3-(2-aminoethyl)urea]	0.1 to 1	0.1 to 1
COc1ccc(NC(=O)Nc2conc2/C(=N/O)Nc2ccc(F)c(Cl)c2)cc1 [Embodiment 112, (Z)-1-(4-(N-(3-chloro-4-fluorophenyl)-N′-hydroxyaminoiminomethyl)-isoxazole-3-substituted)-4-(4-methoxyphenyl)urea]	0.1 to 1	0.1 to 1
O=C(Nc1nocc1/C(=N/O)Nc1ccc(F)c(Br)c1)NC1CC1 [Embodiment 86, (Z)-1-(4-(N-(3-bromo-4-fluorophenyl)-N′-hydroxyaminoiminomethyl)-isoxazole-3-substituted)-3-(cyclopropyl)urea]	> 1	> 1
O=C(Nc1ccccc1)Nc1conc1/C(=N/O)Nc1ccc(F)c(Cl)c1 [Embodiment 113, (Z)-1-(4-(N-(3-chloro-4-fluorophenyl)-N′-hydroxyaminoiminomethyl)-isoxazole-3-substituted)-4-phenylurea]	0.1 to 1	0.1 to 1
COc1ccc(NC(=O)Nc2nonc2/C(=N/O)Nc2ccc(F)c(Br)c2)cc1 [Embodiment 1, (Z)-1-(4-(N-(3-bromo-4-fluorophenyl)-N′-hydroxyaminoiminomethyl)-1,2,5-oxadiazole-3-substituted)-3-(4-methoxyphenyl)urea]	0.1 to 1	0.1 to 1
CS(=O)(=O)N1CCC(NC(=O)Nc2nonc2/C(=N/O)Nc2ccc(F)c(Br)c2)CC1 [Embodiment 12, (Z)-1-(4-(N-(3-bromo-4-fluorophenyl)-N′-hydroxyaminoiminomethyl)-1,2,5-oxadiazole-3-substituted)-3-(1(methsulfonyl)piperidine-4-substituted)urea]	0.1 to 1	0.1 to 1
O=C(Nc1nocc1/C(=N/O)Nc1ccc(F)c(Br)c1)NC1CCNCC1 [Embodiment 85, (Z)-1-(4-(N-(3-bromo-4-fluorophenyl)-N′-hydroxyaminoiminomethyl)-isoxazole-3-substituted)-3-(piperidine-4-substituted)urea]	< 0.001	< 0.001
COc1ccc(NC(=S)Nc2nonc2/C(=N/O)Nc2ccc(F)c(Br)c2)c(F)c1 [Embodiment 120]	> 1	> 1
COc1ccc(NC(=S)Nc2conc2/C(=N/O)Nc2ccc(F)c(Cl)c2)cc1 [Embodiment 130, (Z)-1-(4-(N-(3-chloro-4-fluorophenyl)-N′-hydroxyaminoiminomethyl)-isoxazole-3-substituted)-4-(4-methoxyphenyl)thiourea]	0.1 to 1	0.1 to 1
O=C(Nc1ccccc1)Nc1cocc1/C(=N/O)Nc1ccc(F)c(Br)c1 [Embodiment 60, (Z)-1-(4-(N-(3-bromo-4-fluorophenyl)-N′-hydroxyaminoiminomethyl)-furan-3-substituted)-3-phenylurea]	> 1	> 1
O=C(Nc1cccnc1)Nc1cocc1/C(=N/O)Nc1ccc(F)c(Br)c1 [Embodiment 75, (Z)-1-(4-(N-(3-bromo-4-fluorophenyl)-N′-hydroxyaminoiminomethyl)-furan-3-substituted)-3-(3-aminopyridine)urea]	0.1 to 1	0.1 to 1
O=C(Nc1nonc1/C(=N/O)Nc1ccc(F)c(Br)c1)NC1CCCC1 [Embodiment 8, (Z)-1-(4-(N-(3-bromo-4-fluorophenyl)-N′-hydroxyaminoiminomethyl)-1,2,5-oxadiazole-3-substituted)-3-cyclopentylurea]	0.1 to 1	0.1 to 1
O=C(Nc1nonc1/C(=N/O)Nc1ccc(F)c(Br)c1)NC1CCOC1 (stereo not drawn) [Embodiment 47, (Z)-1-(4-(N-(3-bromo-4-fluorophenyl)-N′-hydroxyaminoiminomethyl)-1,2,5-oxadiazole-3-substituted)-3-(tetrahydrofuran-substituted)urea]	0.1 to 1	0.1 to 1
(Z)-1-(4-(N-(3-bromo-4-fluorophenyl)-N′-hydroxyaminoiminomethyl)-isoxazole-3-substituted)-3-phenylurea [Embodiment 81]	0.1 to 1	0.1 to 1
COc1ccc(NC(=N)Nc2nonc2/C(=N/O)Nc2ccc(F)c(Br)c2)cc1 [Embodiment 139, (Z)-1-(4-(N-(3-bromo-4-fluorophenyl)-N′-hydroxyaminoiminomethyl)-1,2,5-oxadiazole-3-substituted)-3-(4-methoxyphenyl)guanidine]	< 0.001	< 0.001
CC(C)NC(=O)Nc1nocc1/C(=N/O)Nc1ccc(F)c(Br)c1 [Embodiment 92, (Z)-1-(4-(N-(3-bromo-4-fluorophenyl)-N′-hydroxyaminoiminomethyl)-isoxazole-3-substituted)-3-(isopropyl)urea]	0.1 to 1	0.1 to 1
